Converted amounts (≈) assume the structure as drawn. “Also recorded” adds a separate entry of the source. Non-standard residues stand in square brackets, D forms with d. Residues, ends and D or L forms follow the SMILES beside them. No end group written: not given here.
How the values were obtained:
S. aureus ATCC 29213 [1] = assay: MIC determination in broth; type: cell-based, Staphylococcus aureus; settings: STIP3 variants, highest conc. tested 100 μg/mL; cation-adjusted MH broth, ~10^5 CFU/mL, 2-fold dilution series, 37°C, 16 h
In short: (§1)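 Broth microdilution in cation-adjusted Mueller-Hinton broth, inoculum ~10^5 CFU/mL (OD 5 × 10^−4), with peptides in 2-fold dilution series. Plates incubated without shaking at 37°C for Staphylococcus strains.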

MRSA ATCC BAA-2313 = assay: MIC determination in broth; type: cell-based, Staphylococcus aureus; settings: STIP3 variants, highest conc. tested 100 μg/mL; cation-adjusted MH broth, ~10^5 CFU/mL, 2-fold dilution series, 37°C, 16 h
In short: as §1

MRSA ATCC BAA-42 = assay: MIC determination in broth; type: cell-based, Staphylococcus aureus; settings: STIP3 variants, highest conc. tested 100 μg/mL; cation-adjusted MH broth, ~10^5 CFU/mL, 2-fold dilution series, 37°C, 16 h
In short: as §1

MRSA ATCC BAA-1683 = assay: MIC determination in broth; type: cell-based, Staphylococcus aureus; settings: STIP3 variants, highest conc. tested 100 μg/mL; cation-adjusted MH broth, ~10^5 CFU/mL, 2-fold dilution series, 37°C, 16 h
In short: as §1

MRSA ATCC BAA-44 = assay: MIC determination in broth; type: cell-based, Staphylococcus aureus; settings: STIP3 variants, highest conc. tested 100 μg/mL; cation-adjusted MH broth, ~10^5 CFU/mL, 2-fold dilution series, 37°C, 16 h
In short: as §1

MRSA ATCC 33592 = assay: MIC determination in broth; type: cell-based, Staphylococcus aureus; settings: cation-adjusted MH broth, ~10^5 CFU/mL, 37°C, 16 h; for MIC, S. aureus ATCC 33592 (SCCmec III): Table S5, STIP3 variants, highest conc. tested 100 μg/mL, 2-fold dilution series
In short: as §1

MRSA ATCC BAA-41 = assay: MIC determination in broth; type: cell-based, Staphylococcus aureus; settings: STIP3 variants, highest conc. tested 100 μg/mL; cation-adjusted MH broth, ~10^5 CFU/mL, 2-fold dilution series, 37°C, 16 h
In short: as §1

MRSA ATCC BAA-2094 = assay: MIC determination in broth; type: cell-based, Staphylococcus aureus; settings: STIP3 variants, highest conc. tested 100 μg/mL; cation-adjusted MH broth, ~10^5 CFU/mL, 2-fold dilution series, 37°C, 16 h
In short: as §1

[2] = Circular dichroism spectroscopy; type: physicochemical; settings: CD, 50% TFE (vol/vol), peptide 0.2 mg/mL, room temperature
Protocol: Peptides were dissolved in ultrapure water or 50% TFE (vol/vol) at a concentration of 0.2 mg/mL for spectroscopy. Spectra of samples in a 1 mm pathlength quartz cuvette were recorded from 180 to 260 nm at 0.5 nm steps using an Applied Photophysics Chirascan Plus CD spectrophotometer operating at room temperature.

S. aureus = assay: MIC of STIP3-1 alanine variants in liquid broth; type: cell-based, Staphylococcus aureus; settings: for Activity against S. aureus in nutrient broth: at 200 μg/mL; for MIC, S. aureus (alanine substituted STIP3-1, liquid broth): Table S4, maximum concentration tested 200 μg/mL, strain not given
Protocol: The MICs were measured for bioactive peptides identified from the initial screen. […] […] Plates were incubated without shaking at 30 or 37°C depending on the organism.

M. luteus ATCC 4698 = assay: MIC determination in broth; type: cell-based, Micrococcus luteus; settings: cation-adjusted MH broth, ~10^5 CFU/mL, 30°C, 48 h
Protocol: M. luteus ATCC 4698, S. aureus ATCC 29213, a panel of 7 MRSA (ATCC MP-2) strains, which includes ATCC BAA-41, BAA-42, BAA-44, BAA-1683, BAA-2094, BAA-2313, and 33592, and a series of additional bacterial isolates from human and veterinary cases were used in this study (Table S6). Bacterial strains were routinely grown in lysogeny broth (LB: 10 g/L tryptone, 5 g/L yeast extract, 10 g/L NaCl) at 30°C (M. luteus) or 37°C (Staphylococcus spp.) prior to use in specific experiments described below.
The MICs were measured for bioactive peptides identified from the initial screen. Cation-adjusted Mueller-Hinton (MH) broth was used as the growth medium for MIC determination experiments. Bacterial cultures were diluted to an OD of 5 × 10^−4 (∼10^5 CFU/mL) in 200 μL MH broth mixed with peptides in a 2-fold dilution series arrayed in 96-well plates. Plates were incubated without shaking at 30 or 37°C depending on the organism.

SspA [3] = assay: SspA protease resuspended at 2 mg/mL in 100 mM HEPES (pH 7.8); settings: 37°C, up to 5 h
SspA [4] = assay: SspA protease in 100 mM HEPES (pH 7.8); settings: Staphylococcus aureus (staphylococcal secreted protease), 37°C, up to 5 h
S. aureus ATCC 29213 [5] = assay: Spot-on-lawn assay; type: cell-based, Staphylococcus aureus; settings: 50 μg peptide (about 45 μg of SspA reaction mixture) spotted on inoculated soft agar, 37°C, 16 to 48 h
Protocol: Peptides (≥70% purity) were resuspended in sterile double distilled water (ddH2O) at a concentration of 10 mg/mL (gross weight), and M. luteus and S. aureus ATCC 29213 were used as indicator strains. To prepare test organisms, the optical density (OD) of overnight cultures was measured and the organisms were diluted to an initial OD of 0.05 (S. aureus) or 0.1 (M. luteus) in soft nutrient agar (0.4% wt/vol) at 50°C. Next, 3 mL of soft agar containing a test organism was overlaid on solid LB agar (1.5% wt/vol). A total of 50 μg of each peptide was spotted on the inoculated surface and plates were incubated for 16 to 48 h at 37 or 30°C.
SspA protease was resuspended at 2 mg/mL in 100 mM HEPES (pH 7.8). Peptide samples (45 μL at 10 mg/mL) were mixed with SspA (5 μL at 2 mg/mL) and incubated at 37°C for a total of 5 h. The antimicrobial activities of the reaction mixtures were assayed by spotting 5 μL (∼45 μg) of each on either M. luteus or S. aureus test organisms as described above. Additional samples were flash frozen in liquid nitrogen and stored at −80°C prior to high-pressure liquid chromatography-mass spectrometry (HPLC/MS) analysis.

Compound: CC[C@@H](C)[C@@H](NC(=O)[C@@H](Cc1c[nH]c2ccccc12)NC(=O)[C@@H](CCCCN)NC(=O)[C@H](NC(=O)[C@@H](CC(C)C)NC(=O)CNC(=O)CNC(=O)[C@H](NC(=O)[C@H](N)[C@H](C)O)C(C)C)C(C)C)C(=O)N[C@H](CC(C)C)C(=O)N[C@H](CCCCN)C(=O)N[C@@H](C(=O)N[C@@H](C(=O)N[C@H](CCCCN)C(=O)N[C@H](CCCCN)C(=O)N[C@H](Cc1ccccc1)C(=O)N[C@H](C)C(N)=O)C(C)C)[C@H](C)O [D-STIP3-29] (H-[dT][dV]GG[dL][dV][dK][dW][dI][dL][dK][dT][dV][dK][dK][dF][dA]-NH2; N-terminus assumed)
- MIC, S. aureus ATCC 29213 (S. aureus ATCC 29213 [1]): 6.25 µg/mL (≈ 3.31 µM)
- MIC, S. aureus ATCC BAA 2313 (SCCmec XI) (MRSA ATCC BAA-2313): 6.25 µg/mL (≈ 3.31 µM)
- MIC, S. aureus ATCC BAA 42 (SCCmec VI) (MRSA ATCC BAA-42): 6.25 µg/mL (≈ 3.31 µM)
- MIC, S. aureus ATCC BAA 1683 (SCCmec IV) (MRSA ATCC BAA-1683): 6.25 µg/mL (≈ 3.31 µM)
- MIC, S. aureus ATCC BAA 44 (SCCmec I) (MRSA ATCC BAA-44): 12.5 µg/mL (≈ 6.62 µM)
- MIC (μg/mL) for MRSA ATCC 33592 (MRSA ATCC 33592; Table 1 and text): 6.25 µg/mL
- MIC, S. aureus ATCC 33592 (SCCmec III) (MRSA ATCC 33592): 6.25 µg/mL (≈ 3.31 µM)
- MIC, S. aureus ATCC BAA 41 (SCCmec II) (MRSA ATCC BAA-41): 6.25 µg/mL (≈ 3.31 µM)
- MIC, S. aureus ATCC BAA 2094 (SCCmec V) (MRSA ATCC BAA-2094): 6.25 µg/mL (≈ 3.31 µM)
- α-Helical content (%) [2]: 47%

Compound: AVGGLVKWILDTVKKFA [T1A]
- Activity against S. aureus in nutrient broth (S. aureus): maintained activity
- MIC, M. luteus (M. luteus ATCC 4698): 12.5 µg/mL

Compound: IIGTINDLIKWIADTVEKYKK
- cleaved bond (SspA [3]): D-L and D-T
- fragment found (SspA [3]): KYKK and LIKWIADTVE
- fragment found (SspA [4]): IIGTIND; also recorded: LIKWIAD

Compound: IISTIGDLIKWIIDTVKKFKK
- cleaved bond (SspA [3]): D-T
- fragment found (SspA [4]): IISTIGDLIKWIID; also recorded: TVKKFKK

Compound: IISTIVEFVKLIAETIAKFMK
- cleaved bond (SspA [3]): E-T and E-F
- fragment found (SspA [4]): IISTIVE; also recorded: FVKLIAETIAKFMK; also recorded: TIAKFMK

Compound: IVETVGGLVKWILDTVKKFA
- cleaved bond (SspA [3]): D-T
- fragment found (SspA [3]): IVE and TVGGLVKWILDTVKKFA and TVGGLVKWILD
- fragment found (SspA [4]): TVKKFA

Compound: TVAGLVKWILDTVKKFA [G3A]
- Inhibition of S. aureus growth, spot-on-lawn (S. aureus ATCC 29213 [5]): inhibition observed on an agar surface
- MIC, M. luteus (M. luteus ATCC 4698): 50 µg/mL

Compound: TVGALVKWILDTVKKFA [G4A]
- Inhibition of S. aureus growth, spot-on-lawn (S. aureus ATCC 29213 [5]): inhibition observed on an agar surface
- MIC, M. luteus (M. luteus ATCC 4698): 12.5 µg/mL

Compound: TVGGLVKWILATVKKFA [STIP3-2]
- MIC, S. aureus (alanine substituted STIP3-1, liquid broth) (S. aureus): 100 µg/mL
- Activity against S. aureus in nutrient broth (S. aureus): maintained activity
- MIC, M. luteus (M. luteus ATCC 4698): 3.13 µg/mL
- MIC, S. aureus ATCC 29213 (S. aureus ATCC 29213 [1]): 100 µg/mL
- MIC, S. aureus ATCC BAA 2313 (SCCmec XI) (MRSA ATCC BAA-2313): 50 µg/mL
- MIC, S. aureus ATCC BAA 42 (SCCmec VI) (MRSA ATCC BAA-42): 50 µg/mL
- MIC, S. aureus ATCC BAA 1683 (SCCmec IV) (MRSA ATCC BAA-1683): 50 µg/mL
- MIC, S. aureus ATCC BAA 44 (SCCmec I) (MRSA ATCC BAA-44): 100 µg/mL
- MIC, S. aureus ATCC 33592 (SCCmec III) (MRSA ATCC 33592): 50 µg/mL
- MIC, S. aureus ATCC BAA 41 (SCCmec II) (MRSA ATCC BAA-41): 100 µg/mL
- MIC, S. aureus ATCC BAA 2094 (SCCmec V) (MRSA ATCC BAA-2094): 50 µg/mL

Compound: TVGGLVKWILDAVKKFA [T12A]
- MIC, S. aureus (alanine substituted STIP3-1, liquid broth) (S. aureus): 100 µg/mL
- Activity against S. aureus in nutrient broth (S. aureus): maintained activity
- MIC, M. luteus (M. luteus ATCC 4698): 12.5 µg/mL

Compound: TVGGLVKWILDTAKKFA [V13A]
- Activity against S. aureus in nutrient broth (S. aureus): maintained activity
- MIC, M. luteus (M. luteus ATCC 4698): 50 µg/mL

Compound: TVGGLVKWILDTVAKFA [K14A]
- Inhibition of S. aureus growth, spot-on-lawn (S. aureus ATCC 29213 [5]): inhibition observed on an agar surface
- MIC, M. luteus (M. luteus ATCC 4698): 12.5 µg/mL

Compound: TVGGLVKWILDTVKAFA [K15A]
- Inhibition of S. aureus growth, spot-on-lawn (S. aureus ATCC 29213 [5]): inhibition observed on an agar surface
- MIC, M. luteus (M. luteus ATCC 4698): 25 µg/mL

Compound: TVGGLVKWILDTVKKFA
- cleaved bond (SspA [3]): Asp11-T12
- fragment found (SspA [4]): TVGGLVKWILD; also recorded: TVKKFA
